According to PMC5540273, “Progress towards a public chemogenomic set for protein kinases and a call for contributions” (PLoS ONE, 2017):

Key:
Assay in all cases: KINOMEscan competition binding
[1] = target: T1, ASK1 (Homo sapiens, UniProt Q99683); settings: read-out: %Inh ASK1
T1 sequence (Q99683 1-1374): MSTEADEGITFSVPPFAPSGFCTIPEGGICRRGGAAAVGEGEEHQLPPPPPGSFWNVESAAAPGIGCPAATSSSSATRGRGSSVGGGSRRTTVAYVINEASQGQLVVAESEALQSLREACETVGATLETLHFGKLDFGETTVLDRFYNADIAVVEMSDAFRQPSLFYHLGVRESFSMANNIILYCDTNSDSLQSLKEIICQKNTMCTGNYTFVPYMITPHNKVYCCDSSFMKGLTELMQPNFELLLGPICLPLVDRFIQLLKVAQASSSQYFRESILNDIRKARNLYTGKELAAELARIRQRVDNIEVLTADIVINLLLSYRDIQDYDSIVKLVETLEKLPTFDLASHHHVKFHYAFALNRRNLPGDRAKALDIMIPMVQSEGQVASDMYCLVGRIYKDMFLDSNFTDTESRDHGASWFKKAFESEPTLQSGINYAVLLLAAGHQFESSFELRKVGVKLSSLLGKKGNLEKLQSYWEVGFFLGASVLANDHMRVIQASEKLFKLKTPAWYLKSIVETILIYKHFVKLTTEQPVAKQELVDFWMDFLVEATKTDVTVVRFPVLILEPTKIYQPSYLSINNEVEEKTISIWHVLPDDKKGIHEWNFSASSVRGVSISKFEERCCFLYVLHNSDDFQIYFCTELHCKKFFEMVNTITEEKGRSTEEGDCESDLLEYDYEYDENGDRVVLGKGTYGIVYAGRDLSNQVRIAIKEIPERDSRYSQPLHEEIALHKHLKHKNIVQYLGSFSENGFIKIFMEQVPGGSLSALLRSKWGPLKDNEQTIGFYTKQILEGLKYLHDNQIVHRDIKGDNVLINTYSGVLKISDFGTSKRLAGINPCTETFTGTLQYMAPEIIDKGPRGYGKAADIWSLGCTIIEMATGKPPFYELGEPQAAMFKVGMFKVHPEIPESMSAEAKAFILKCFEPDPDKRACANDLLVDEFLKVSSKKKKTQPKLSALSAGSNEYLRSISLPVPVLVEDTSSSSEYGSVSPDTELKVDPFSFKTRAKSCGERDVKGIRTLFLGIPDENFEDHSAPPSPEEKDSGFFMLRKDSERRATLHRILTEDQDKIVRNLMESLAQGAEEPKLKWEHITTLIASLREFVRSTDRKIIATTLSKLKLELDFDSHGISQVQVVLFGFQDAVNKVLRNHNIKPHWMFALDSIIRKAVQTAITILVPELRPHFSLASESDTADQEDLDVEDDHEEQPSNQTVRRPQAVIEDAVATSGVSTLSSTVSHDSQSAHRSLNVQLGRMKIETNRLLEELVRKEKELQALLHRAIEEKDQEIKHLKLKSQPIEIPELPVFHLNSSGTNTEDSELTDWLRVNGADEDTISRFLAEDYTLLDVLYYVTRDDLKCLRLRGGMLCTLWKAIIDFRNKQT

[2] = target: CDKL3 (Homo sapiens, UniProt Q8IVW4); settings: read-out: %Inh CDKL3
Chain of CDKL3 (Q8IVW4 whole entry): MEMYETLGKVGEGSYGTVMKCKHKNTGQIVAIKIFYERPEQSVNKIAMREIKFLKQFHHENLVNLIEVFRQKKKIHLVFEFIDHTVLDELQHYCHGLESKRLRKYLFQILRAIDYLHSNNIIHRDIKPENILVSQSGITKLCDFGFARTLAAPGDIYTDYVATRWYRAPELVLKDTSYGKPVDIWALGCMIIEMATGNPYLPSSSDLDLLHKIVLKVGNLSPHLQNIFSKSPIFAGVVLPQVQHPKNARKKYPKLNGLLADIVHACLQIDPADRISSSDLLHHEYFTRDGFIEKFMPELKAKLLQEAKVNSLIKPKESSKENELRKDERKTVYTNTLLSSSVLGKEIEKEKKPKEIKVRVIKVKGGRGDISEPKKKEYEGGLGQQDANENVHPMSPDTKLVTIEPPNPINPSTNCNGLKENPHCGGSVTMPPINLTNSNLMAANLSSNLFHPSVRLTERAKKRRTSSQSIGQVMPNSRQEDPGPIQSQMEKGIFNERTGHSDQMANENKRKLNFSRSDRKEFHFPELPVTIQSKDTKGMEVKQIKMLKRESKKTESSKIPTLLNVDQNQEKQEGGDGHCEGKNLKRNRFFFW

[3] = target: EPHA5 (Homo sapiens, UniProt P54756); settings: read-out: %Inh EPHA5
Chain of EPHA5 (P54756 25-1037): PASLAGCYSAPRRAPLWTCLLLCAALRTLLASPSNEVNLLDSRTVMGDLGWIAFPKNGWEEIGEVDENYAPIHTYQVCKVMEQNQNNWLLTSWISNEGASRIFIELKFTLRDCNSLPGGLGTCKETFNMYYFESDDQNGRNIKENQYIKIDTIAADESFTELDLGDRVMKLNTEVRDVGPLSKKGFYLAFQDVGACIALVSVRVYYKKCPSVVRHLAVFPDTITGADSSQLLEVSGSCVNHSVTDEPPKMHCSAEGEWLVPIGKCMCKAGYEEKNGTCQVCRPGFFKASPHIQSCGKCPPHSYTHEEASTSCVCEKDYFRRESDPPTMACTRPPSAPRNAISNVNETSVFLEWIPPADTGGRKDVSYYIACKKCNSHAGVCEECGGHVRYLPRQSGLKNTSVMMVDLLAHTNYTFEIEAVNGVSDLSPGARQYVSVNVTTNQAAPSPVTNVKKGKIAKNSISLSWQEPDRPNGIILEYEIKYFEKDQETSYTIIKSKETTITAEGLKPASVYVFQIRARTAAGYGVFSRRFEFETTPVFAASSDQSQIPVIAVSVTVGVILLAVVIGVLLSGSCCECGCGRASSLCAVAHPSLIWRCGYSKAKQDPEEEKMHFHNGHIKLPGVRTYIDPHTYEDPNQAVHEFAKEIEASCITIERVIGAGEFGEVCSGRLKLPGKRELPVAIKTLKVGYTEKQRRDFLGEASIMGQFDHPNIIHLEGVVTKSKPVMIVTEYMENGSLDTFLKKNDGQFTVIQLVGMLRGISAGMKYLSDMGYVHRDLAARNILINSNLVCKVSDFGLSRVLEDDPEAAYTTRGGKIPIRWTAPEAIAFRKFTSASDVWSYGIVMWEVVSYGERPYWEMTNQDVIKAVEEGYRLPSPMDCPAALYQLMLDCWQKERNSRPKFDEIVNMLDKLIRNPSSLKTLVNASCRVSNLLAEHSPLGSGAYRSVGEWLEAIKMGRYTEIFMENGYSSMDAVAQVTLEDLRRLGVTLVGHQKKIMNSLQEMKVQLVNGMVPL

[4] = target: ERK2 (Homo sapiens, UniProt P28482); settings: read-out: %Inh ERK2
Chain of ERK2 (P28482 whole entry): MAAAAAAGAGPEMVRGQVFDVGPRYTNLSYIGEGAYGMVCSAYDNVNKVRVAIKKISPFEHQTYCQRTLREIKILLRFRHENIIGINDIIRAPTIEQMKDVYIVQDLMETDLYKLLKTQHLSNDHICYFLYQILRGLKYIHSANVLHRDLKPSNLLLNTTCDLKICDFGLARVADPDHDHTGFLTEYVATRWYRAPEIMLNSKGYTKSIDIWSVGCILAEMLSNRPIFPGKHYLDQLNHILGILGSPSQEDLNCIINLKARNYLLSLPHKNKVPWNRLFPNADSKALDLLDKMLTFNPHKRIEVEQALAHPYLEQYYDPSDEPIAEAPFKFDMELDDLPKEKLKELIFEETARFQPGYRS

[5] = target: T2, IKK-alpha (Homo sapiens, UniProt O15111); settings: read-out: %Inh IKK-alpha
T2 sequence (O15111 1-745): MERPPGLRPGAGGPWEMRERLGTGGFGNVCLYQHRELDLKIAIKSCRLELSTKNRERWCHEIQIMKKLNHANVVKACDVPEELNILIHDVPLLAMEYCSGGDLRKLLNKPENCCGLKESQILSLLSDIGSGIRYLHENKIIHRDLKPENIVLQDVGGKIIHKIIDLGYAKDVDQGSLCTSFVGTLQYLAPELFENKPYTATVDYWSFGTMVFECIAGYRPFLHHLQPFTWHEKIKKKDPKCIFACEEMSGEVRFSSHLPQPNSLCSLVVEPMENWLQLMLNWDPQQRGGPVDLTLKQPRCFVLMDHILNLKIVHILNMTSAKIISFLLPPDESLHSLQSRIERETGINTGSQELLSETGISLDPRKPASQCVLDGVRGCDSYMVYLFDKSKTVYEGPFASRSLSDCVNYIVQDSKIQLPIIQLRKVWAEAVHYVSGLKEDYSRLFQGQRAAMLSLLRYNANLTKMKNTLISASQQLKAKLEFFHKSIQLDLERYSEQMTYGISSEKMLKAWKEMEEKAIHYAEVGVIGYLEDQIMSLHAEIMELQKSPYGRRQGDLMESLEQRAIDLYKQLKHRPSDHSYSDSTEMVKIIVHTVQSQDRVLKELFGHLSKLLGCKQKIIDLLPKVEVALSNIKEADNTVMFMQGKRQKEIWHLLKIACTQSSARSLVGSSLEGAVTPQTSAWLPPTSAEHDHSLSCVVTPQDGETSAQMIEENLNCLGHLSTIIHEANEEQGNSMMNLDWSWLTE

[6] = target: T3, MAP3K2 (Homo sapiens, UniProt Q9Y2U5); settings: read-out: %Inh MAP3K2
T3 sequence (Q9Y2U5 1-619): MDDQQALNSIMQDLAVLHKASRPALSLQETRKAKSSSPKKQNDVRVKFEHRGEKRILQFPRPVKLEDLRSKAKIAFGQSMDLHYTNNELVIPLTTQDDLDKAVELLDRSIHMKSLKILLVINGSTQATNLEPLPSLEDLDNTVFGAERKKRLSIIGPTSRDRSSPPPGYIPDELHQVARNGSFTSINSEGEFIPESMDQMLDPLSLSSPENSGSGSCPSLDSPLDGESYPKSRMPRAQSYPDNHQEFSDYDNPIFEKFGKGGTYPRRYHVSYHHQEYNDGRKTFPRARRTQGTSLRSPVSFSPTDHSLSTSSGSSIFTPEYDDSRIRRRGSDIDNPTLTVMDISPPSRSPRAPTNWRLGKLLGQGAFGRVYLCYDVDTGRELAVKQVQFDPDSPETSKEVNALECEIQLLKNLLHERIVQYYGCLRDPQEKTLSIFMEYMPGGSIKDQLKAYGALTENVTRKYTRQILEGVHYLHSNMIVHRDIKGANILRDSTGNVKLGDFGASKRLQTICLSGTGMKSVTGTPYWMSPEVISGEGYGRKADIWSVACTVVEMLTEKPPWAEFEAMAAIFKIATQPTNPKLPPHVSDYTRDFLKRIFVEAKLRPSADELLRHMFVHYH

Row | SMILES | inhibition at 1 µM [1] [%] | inhibition at 1 µM [2] [%] | inhibition at 1 µM [3] [%] | inhibition at 1 µM [4] [%] | inhibition at 1 µM [5] [%] | inhibition at 1 µM [6] [%]
1 | Cn1cc(-c2cnc(N)c3c(-c4ccc5c(c4)CCN5C(=O)Cc4ccccc4)csc23)cn1 [UNC10225012A] | 21 | 4 | 0 | 0 | 0 | 75
2 | O=c1cc(N2CCOCC2)nc2n(Cc3cccc(Cl)c3Cl)c(C3CC3)nn12 [UNC10225469A] | 0 | 0 | 6 | 11 | 0 | 0
3 | COc1cccc(OC)c1C(=O)Nc1cccc(-c2nn3ccccc3c2-c2ccnc(Nc3cccc(F)c3)n2)c1 [UNC10225310A] | 22 | 3 | 11 | 6 | 0 | 7
4 | CS(=O)(=O)Cc1ccc(Nc2nccc(-c3c(-c4cccc(NC(=O)C5CCCCC5)c4)nn4ncccc34)n2)cc1 [UNC10225159A] | 0 | 0 | 0 | 0 | 0 | 15
5 | Cc1ccc(NC(=O)Nc2cccc(C(F)(F)F)c2)cc1 [UNC10225187A] | 20 | 4 | 0 | 0 | 0 | 0
